What was measured:
[1] = tested on: MLKL phosphorylation in HT29-L23 human colorectal adenocarcinoma cells; assay: MLKL Phosphorylation High-Content Assay; type: cell-based; settings: Homo sapiens, 6 h, necroptosis induced with TNFα, SMAC mimetic and Z-VAD, read-out: pMLKL (IC50)
Outline: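 HT29-L23 cells pretreated 30 min at 37 °C with compound (6.25 to 0.106 μM final), then necroptosis induced with TNFα 35 ng/mL, SMAC mimetic 700 nM and Z-VAD 140 nM for 6 h. Fixed cells immunostained for MLKL pS358 and imaged; IC50 and Ymax from 4-parameter logistic fit.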

[2] = biological target: His-GST-TVMV-hRIPK1(1-324) (Homo sapiens (Human), UniProt Q13546); assay: RIPK1 HTRF Binding Assay; settings: HTRF binding, 1 h at rt; read-out: RIPK1 (IC50)
Outline: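 HTRF probe-displacement binding: 1 nM His-GST-TVMV-hRIPK1(1-324) (baculovirus construct), 90.6 nM probe, 0.2 nM anti-GST-Tb in 20 mM HEPES, 10 mM MgCl2, 0.015% Brij-35, 4 mM DTT, 0.05 mg/mL BSA. Incubated 1 h at rt; FRET 520/495 nm ratio, inhibition relative to DMSO-only wells.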

Chain of His-GST-TVMV-hRIPK1(1-324) (Q13546 1-324): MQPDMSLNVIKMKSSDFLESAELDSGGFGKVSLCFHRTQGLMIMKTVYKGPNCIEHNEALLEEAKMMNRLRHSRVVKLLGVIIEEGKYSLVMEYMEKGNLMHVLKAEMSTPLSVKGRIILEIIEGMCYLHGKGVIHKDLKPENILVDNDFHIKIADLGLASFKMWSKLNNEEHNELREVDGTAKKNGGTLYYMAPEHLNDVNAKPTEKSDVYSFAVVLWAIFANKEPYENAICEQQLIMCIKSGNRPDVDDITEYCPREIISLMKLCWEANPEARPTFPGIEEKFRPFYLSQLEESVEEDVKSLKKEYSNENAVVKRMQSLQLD

Row | SMILES | IC50 [1] [nM] | IC50 [2] [nM]
1 | Cc1ncc(-c2ccc3nc(NC(=O)CN4CC(F)(F)C4)cn3n2)cc1C(=O)N[C@H](C)c1cc(OC(F)(F)F)ccc1F [Example 335, 5-{2-[2-(3,3-difluoroazetidin-1-yl)acetamido]-imidazo[1,2-b]pyridazin-6-yl}-N-[(1R)-1-[2-fluoro-5-(trifluoromethoxy)-phenyl]ethyl]-2-methylpyridine-3-carboxamide] | 9 | 28
2 | Cc1ncc(-c2ccc3nc(NC(=O)CN4CCN(C)CC4)cn3n2)cc1C(=O)N[C@H](C)c1cc(OC(F)(F)F)ccc1F [Example 336, N-[(1R)-1-[2-fluoro-5-(trifluoromethoxy)-phenyl]ethyl]-2-methyl-5-{2-[2-(4-methylpiperazin-1-yl)acetamido]imidazo[1,2-b]pyridazin-6-yl}pyridine-3-carboxamide] | 8 | 19
3 | Cc1ncc(-c2ccc3nc(NC(=O)CN(C)C)cn3n2)cc1C(=O)N[C@H](C)c1cc(OC(F)(F)F)ccc1F [Example 338, 5-{2-[2-(dimethylamino)-acetamido]-imidazo[1,2-b]pyridazin-6-yl}-N-[(1R)-1-[2-fluoro-5-(trifluoromethoxy)-phenyl]ethyl]-2-methylpyridine-3-carboxamide] | 50 | 21
4 | Cc1ncc(-c2ccc3nc(NC(=O)[C@H](C)O)cn3n2)cc1C(=O)N[C@H](C)c1cc(OC(F)(F)F)ccc1F [Example 339, N-((R)-1-(2-fluoro-5-(trifluoromethoxy)-phenyl)ethyl)-5-(2-((S)-2-hydroxypropanamido)-imidazo[1,2-b]pyridazin-6-yl)-2-methylnicotinamide] | 170 | 48
5 | CNCC(=O)Nc1cn2nc(-c3cnc(C)c(C(=O)N[C@H](C)c4cc(OC(F)(F)F)ccc4F)c3)ccc2n1 [Example 340, N-[(1R)-1-[2-fluoro-5-(trifluoromethoxy)-phenyl]ethyl]-2-methyl-5-{2-[2-(methylamino)-acetamido]imidazo [1,2-b]pyridazin-6-yl}pyridine-3-carboxamide] | 258 | 67
6 | Cc1ncc(-c2ccc3nc(NC(=O)CN)cn3n2)cc1C(=O)N[C@H](C)c1cc(OC(F)(F)F)ccc1F [Example 341, 5-[2-(2-aminoacetamido)-imidazo[1,2-b]pyridazin-6-yl]-N-[(1R)-1-[2-fluoro-5-(trifluoromethoxy)-phenyl]ethyl]-2-methylpyridine-3-carboxamide] | 492 | 91
7 | CC(=O)OCC(=O)Nc1cn2nc(-c3cnc(C)c(C(=O)N[C@H](C)c4cc(OC(F)(F)F)ccc4F)c3)ccc2n1 [Example 342, {[6-(5-{[(1R)-1-[2-fluoro-5-(trifluoromethoxy)-phenyl]ethyl]-carbamoyl}-6-methylpyridin-3-yl)imidazo[1,2-b]pyridazin-2-yl]carbamoyl}-methyl acetate] | 142 | 13
8 | Cc1ncc(-c2ccc3nc(NC(=O)CN4CCC(F)(F)CC4)cn3n2)cc1C(=O)NCC[C@@H](O)c1ccc(Cl)cc1 [Example 343, N-[(3R)-3-(4-chlorophenyl)-3-hydroxypropyl]-5-{2-[2-(4,4-difluoropiperidin-1-yl)acetamido]imidazo[1,2-b]pyridazin-6-yl}-2-methylpyridine-3-carboxamide] | 24 | 9
9 | Cc1ncc(-c2ccc3nc(NC(=O)CN4CC(F)(F)C4)cn3n2)cc1C(=O)NCC[C@@H](O)c1ccc(Cl)cc1 [Example 344, N-[(3R)-3-(4-chlorophenyl)-3-hydroxypropyl]-5-{2-[2-(3,3-difluoroazetidin-1-yl)acetamido]imidazo[1,2-b]pyridazin-6-yl}-2-methylpyridine-3-carboxamide] | 37 | 266
10 | Cc1ncc(-c2ccc3nc(NC(=O)CN(C)C)cn3n2)cc1C(=O)NCC[C@H](O)c1ccc(Cl)cc1 [Example 347, N-[(3S)-3-(4-chlorophenyl)-3-hydroxypropyl]-5-{2-[2-(dimethylamino)-acetamido]-imidazo[1,2-b]pyridazin-6-yl}-2-methylpyridine-3-carboxamide] | 89 | 44

— patent US11440913B2, “Aminoimidazopyridazines as kinase inhibitors” (BRISTOL-MYERS SQUIBB COMPANY, priority 2017, dated 2022)
